One substance from patent US11472845B2, “Antitumor peptide and use thereof” (TOAGOSEI CO., LTD., priority 2019, dated 2022) can be followed below.

Where two headings read alike, the source gives them in different places. Ends that are not written are not given here.

For the series, the system named is human melanoma cell lines (A375). The series is classed as cell-based. The conditions noted are these: for Cell viability (%) of test cells: human, 48 h. How it is done:
The antitumor activity of Sample 1 synthesized in the above Test Example 1 with respect to human-derived cultured tumor cells was evaluated. Currently commercially available human gastric cancer cell lines (FU97), human alveolar basal epithelial adenocarcinoma cell lines (A549), human breast cancer cell lines (MDA-MB-231), and human melanoma cell lines (A375) were prepared as test tumor cells. In addition, normal human mammary epithelial cell culture lines (MCF-12F) were prepared for comparison. A DMEM culture medium including 50 unit/mL of penicillin, 50 μg/mL of streptomycin, and 10% FBS. The above five types of cell lines were cultured in respective designated culture solutions. The cell lines were cultured so that the number of cells per well in a 96-hole (well) plate was about 5×10^3. Here, an amount of the culture solution per well was 100 μL. The 96-well plate was then placed in a CO2 incubator. Then, pre-incubation was performed under conditions of 37° C. and 5% CO2 for about 1 day (about 23 hours). Then, regarding the culture solution for the peptide addition area, culture solutions containing Sample 1 for each concentration were prepared so that the concentration of Sample 1 was 6.25 μM, 12.5 μM or 25 μM and supplied to wells (that is, wells after the pre-incubation) in which 90 μL of cells to be evaluated were cultured in each well. On the other hand, regarding the culture solution for the comparative test area, a culture solution to which no Sample 1 was added was prepared, and supplied to wells (that is, wells after the pre-incubation) in which 90 μL of cells to be evaluated were cultured in each well. The 96-well plate was then placed in a CO2 incubator, and incubated under conditions of 37° C. and 5% CO2 for 48 hours. After the incubation for 48 hours, the culture solution in each well was replaced with […] a fresh culture solution containing no Sample 1. […] Then, the absorbance at a wavelength of 450 nm (value corrected by the absorbance at a wavelength of 620 nm: A450-A620) was measured based on the reduction of the tetrazolium salt in the culture solution. Then, the cell viability was calculated according to a colorimetric method. In the test areas (test areas 1 to 3) in the peptide addition area, the cell viability of each of the above five types of cell lines was calculated as a relative value when a measured value (measurement absorbance) of the comparative test area in the same cell lines was set as 100%. That is, regarding each of the above five types of cell lines, the cell viability (%) was calculated by dividing the measurement absorbance of the test areas (test areas 1 to 3) in the peptide addition area by the measurement absorbance of the comparative test area in the same cell lines and multiplying by 100.

For “MACLGFQRHKAQLNLATRTWPCTLLFFLLFIPVFCKKRTLRKTDRKKR-NH2 (cysteines drawn unpaired) [Sample 1]”, the “Specific cell viability of test tumor cells” value (A375, 12.5 μM Sample 1, (cell viability of test tumor cells)/(cell viability of MCF-12F cells)×100) is 35.7. Besides, the “Cell viability (%) of test cells” value runs as follows: (6.25 μM) 57.8%; (12.5 μM) 40.8%; (25 μM) 31.6%.
